Laboratory results: patent US6486199B1, “Spiro and dispiro 1,2,4-trioxolane antimalarials” (Medicines for Malaria Venture MMV International Centre …, priority 2001, dated 2002)
Converted amounts (≈) assume the structure as drawn. Read-outs that look alike come from different tables or passages of the source. Marks after values point to notes of the source that are not given here.

How the values were obtained:
[1] = test system: chloroquine-resistant K1 strain of P. falciparum; assay: in vitro screen against chloroquine-resistant K1 strain of P. falciparum; assay type: cell-based; conditions: for IC50: Plasmodium falciparum; for in vitro potency: strains not distinguished
[2] = differential scanning calorimetry (DSC), thermal stability; assay type: physicochemical; conditions: thermal decomposition
[3] = test system: chloroquine-sensitive NF54 strain of P. falciparum; assay: in vitro screen against chloroquine-sensitive NF54 strain of P. falciparum; assay type: cell-based; conditions: for IC50: Plasmodium falciparum
[4] = test system: ANKA strain of P. Berghei; assay: single dose STI in vivo screen in infected Moro SPF mice; conditions: for inhibition in vivo at 10 mg/kg: Plasmodium berghei, 72 h; for in vivo activity: 10 mg/kg po/sc data of Table 2; for Activity (%) po / Activity (%) sc: percent reduction in parasitemia day 3 post-infection
Protocol: In the single dose STI in vivo screen, Moro SPF mice infected with the ANKA strain of P. Berghei (groups of three mice) were treated on day one post-infection with trioxolanes dissolved or suspended in 3% ethanol and 7% Tween 80. […] Antimalarial activity was measured by percent redution in parasitemia on day three post-infection and survival times compared to an untreated control group. Survival to day 30 post-infection is considered to be a cure.

[5] = test system: 21-day-old schistosomules of Schistosoma mansoni; assay: effect on 21-day-old schistosomules in mice; assay type: in vivo; conditions: single 200 mg/kg per os
Protocol: […] Each group was treated per os with OZ compounds at a single dose of 200 mg/kg. Untreated mice served as the control. All groups were killed 4 weeks after treatment and the liver and intestine were removed and separated. The liver and intestine were compressed and alive male and female worms could be seen and counted. The effect of the compounds was evaluated by mean total and female worm burden.

[6] = test system: P. berghei; assay: 1-day Peters test against P. berghei in vivo
[7] = test system: P. berghei; assay: 4-day Peters test against P. berghei in vivo; conditions: for ED50: Plasmodium berghei, 96 h
[8] = in vitro, K1 strain, read-out: IC50 (ng/ml) K1
[9] = in vitro, NF54 strain, read-out: IC50 (ng/ml) NF54
[10] = NF54, read-out: IC50 (ng/ml) NF54

## O=S1(=O)CCC2(CC1)OOC1(O2)C2CC3CC(C2)CC1C3 (centres unmarked) [OZ50, Adamantane-2-spiro-3′-1′,2′,4′-trioxa-8′-thiaspiro[4.5]decane 8′,8′-dioxide]
[1]; [8]
  IC50: 1.1 ng/mL (≈ 3.5 nM)
[2]
  Tm dec. (° C.): 147.1 °C
[3]; [9]
  IC50: 1.2 ng/mL (≈ 3.82 nM)

## c1ccc2c(c1)CCC1(C2)OOC2(O1)C1CC3CC(C1)CC2C3 (centres unmarked) [OZ85, Adamantane-2-spiro-3′-1′,2′,4′-trioxolane-5′-spiro-2″-3″,4″-dihydro-1″H-naphthalene]
[1]; in vitro
  in vitro potency: very active
[2]
  Tm dec. (° C.): 152.8 °C
[3]; in vitro, NF54 strain
  IC50 (ng/ml) NF54: /2.0 ng/ml

## C1CC2(CCO1)OOC1(O2)C2CC3CC(C2)CC1C3 (centres unmarked) [OZ22, Adamantane-2-spiro-3′-1′,2′,4′,8′-tetraoxaspiro[4.5]decane]
[1]; K1, read-out: IC50 (ng/ml) K1
  IC50: 0.32 ng/mL (≈ 1.2 nM)
[4]; po, read-out: Activity (%) po
  inhibition in vivo at 10 mg/kg: 35%
[4]; sc, read-out: Activity (%) sc
  inhibition in vivo at 10 mg/kg: 99.6%
[5]; female worm reduction rate
  FWR (%): 76%
[5]; mean ± standard deviation
  Mean female worm burden: 3.0 ± 1.9^b
[5]; total worm reduction rate
  TWR (%): 75%
[3]; [10]
  IC50: 0.56 ng/mL (≈ 2.1 nM)

## CCOC(=O)CC1CCC2(CC1)OOC1(O2)C2CC3CC(C2)CC1C3 (centres unmarked) [OZ61, Adamantane-2-spiro-3′-8′-ethoxycarbonylmethyl-1′,2′,4′-trioxaspiro[4.5]decane]
[1]; in vitro, K1 strain
  IC50 (ng/ml) K1: 0.52 ng/mL (≈ 1.48 nM)
[4]
  in vivo activity: modest
[2]
  Tm dec. (° C.): 161.7 °C
[3]; in vitro, NF54 strain
  IC50 (ng/ml) NF54: 0.53 ng/mL (≈ 1.51 nM)

## CCOC(=O)C1CCC2(CC1)OOC1(O2)C2CC3CC(C2)CC1C3 (centres unmarked) [OZ70, Adamantane-2-spiro-3′-8′-ethoxycarbonyl-1′,2′,4′-trioxaspiro[4.5]decane]
[1]; in vitro, K1 strain
  IC50 (ng/ml) K1: 1.2 ng/mL (≈ 3.57 nM)
[4]; single 10 mg/kg po
  Survival (days) po: 7.7/7.7 days
[4]; single 10 mg/kg sc
  Survival (days) sc: 7.7/7.7 days
[2]
  Tm dec. (° C.): 162.8 °C
[3]; in vitro, NF54 strain
  IC50 (ng/ml) NF54: 1.1 ng/mL (≈ 3.27 nM)

## c1ccc(C2CCC3(CC2)OOC2(CCC(c4ccccc4)CC2)O3)cc1 (centres unmarked) [OZ62, 3,11-Diphenyl-7,14,15-trioxadispiro[5.1.5.2]pentadecane]
[1]; [8]
  IC50: 33 ng/mL (≈ 90.5 nM)
[4]; single 10 mg/kg po
  Activity (%) po: 0/0%
[4]; single 10 mg/kg sc
  Activity (%) sc: 0/0%
[2]
  Tm dec. (° C.): 201.0 °C
[3]; [9]
  IC50: 28 ng/mL (≈ 76.8 nM)

## C1CC2(CCN1)OOC1(O2)C2CC3CC(C2)CC1C3.Cl (centres unmarked) [OZ80, Adamantane-2-spiro-3′-1′,2′,4′-trioxa-8′-azaspiro[4.5]decane hydrochloride]
[1]; K1, read-out: IC50 (ng/ml) K1
  IC50: < 0.16 ng/mL
[1]; in vitro
  in vitro potency: quite potent
[4]
  in vivo activity: modest
[2]
  Tm dec. (° C.): 129.8 °C
[3]; [10]
  IC50: 0.34 ng/mL

## O=C(O)[C@H]1CC[C@]2(CC1)OOC1(O2)C2CC3CC(C2)CC1C3 (stereo partly drawn) [OZ71, cis-Adamantane-2-spiro-3′-8′-carboxy-1′,2′,4′-trioxaspiro[4.5]decane]
[1]; in vitro, K1 strain
  IC50 (ng/ml) K1: 4.5 ng/mL (≈ 14.6 nM)
[2]
  Tm dec. (° C.): 165.9 °C
[3]; in vitro, NF54 strain
  IC50 (ng/ml) NF54: 3.7 ng/mL (≈ 12 nM)

## O=C(O)CC1CCC2(CC1)OOC1(O2)C2CC3CC(C2)CC1C3 (centres unmarked) [OZ78, Adamantane-2-spiro-3′-8′-carboxymethyl-1′,2′,4′-trioxaspiro[4.5]decane]
[1]; in vitro, K1 strain
  IC50 (ng/ml) K1: >10/>10 ng/ml
[1]; in vitro
  in vitro potency: only weakly active
[4]
  in vivo activity: promising
[2]
  Tm dec. (° C.): 157.5 °C
[3]; in vitro, NF54 strain
  IC50 (ng/ml) NF54: >10/>10 ng/ml

## c1ccc(C2(c3ccccn3)OOC3(O2)C2CC4CC(C2)CC3C4)nc1 (centres unmarked) [OZ81, Adamantane-2-spiro-3′-5′,5′-bis(2′-pyridyl)-1′,2′,4′-trioxolane]
[1]; in vitro, K1 strain
  IC50 (ng/ml) K1: >10/>10 ng/ml
[4]; overall judgement of in vitro and in vivo data of Table 2
  antimalarial activity, overall assessment: inactive
[4]; single 10 mg/kg po
  Activity (%) po: 0/0%
[4]; single 10 mg/kg sc
  Activity (%) sc: 0/0%
[2]
  Tm dec. (° C.): 150.7 °C
[3]; in vitro, NF54 strain
  IC50 (ng/ml) NF54: >10/>10 ng/ml

## C1COC2(CCC3(CC2)OOC2(O3)C3CC4CC(C3)CC2C4)O1 (centres unmarked) [OZ10, Adamantane-2-spiro-3′-1′,2′,4′,9′,12′-pentaoxadispiro[4.2.4.2]tetradecane]
[1]; K1, read-out: IC50 (ng/ml) K1
  IC50: 0.4 ng/mL (≈ 1.24 nM)
[4]; po, read-out: Activity (%) po
  inhibition in vivo at 10 mg/kg: 99.6%
[4]; sc, read-out: Activity (%) sc
  inhibition in vivo at 10 mg/kg: 100%
[6]; 1 day, sc
  P. berghei (1 day) ED90 sc: 2.2 mg/kg
[6]; Plasmodium berghei, po, 24 h, read-out: P. berghei (1 day) ED50 po
  ED50: 2.3 mg/kg
[6]; Plasmodium berghei, po, 24 h, read-out: P. berghei (1 day) ED90 po
  ED90: 6.3 mg/kg
[6]; Plasmodium berghei, sc, 24 h, read-out: P. berghei (1 day) ED50 sc
  ED50: 0.06 mg/kg
[7]; 4 day, po
  P. berghei (4 day) ED90 po: 3.0 mg/kg
[7]; 4 day, sc
  P. berghei (4 day) ED90 sc: 0.9 mg/kg
[7]; po, read-out: P. berghei (4 day) ED50 po
  ED50: 1.3 mg/kg
[7]; sc, read-out: P. berghei (4 day) ED50 sc
  ED50: 0.5 mg/kg
[2]
  Tm dec. (° C.): 159.4 °C
[3]; [10]
  IC50: 0.67 ng/mL (≈ 2.08 nM)
